According to ChEMBL document CHEMBL5316363, “Compounds Related to Saudin and Three New Series of Diterpenoids from Clutia lanceolata” (2023):

Species on record: Mus musculus
Assay: Induction of glucose-triggered insulin secretion in BALB/c mouse islets of langerhans measured per islets incubated for 60 mins by ELISA analysis (reference value: 11.8 +/- 0.8 ng/hr)
Assay type: functional
Settings: 1 h
`COC(=O)[C@]1(C)CCC[C@@]2(C)C3=C(C)C(=O)O[C@@H](c4ccoc4)[C@@H]3[C@@H](OC(C)=O)[C@]12O` was tested, and the Activity was 9.3 ng/h. For `COC(=O)[C@]1(C)CCC[C@@]2(C)C3=C(C)C(=O)O[C@@H](C4=CC(=O)OC4O)[C@@H]3[C@@H](OC(C)=O)[C@]12O` (stereo not given in full), the Activity was 16.4 ng/h. For `CC(=O)O[C@H]1[C@@H]2[C@@H]([C@@H](C)C(=O)O[C@H]2c2ccoc2)[C@@]23CCC[C@@](C)(C(=O)OC2O)[C@@]13O` (stereo not given in full), the Activity was 16.6 ng/h. `C[C@@H]1C(=O)O[C@@H](c2ccoc2)C[C@H]1[C@@]1(C)CCC[C@@]2(C)COC(=O)[C@@H]21` showed an Activity of 16.9 ng/h. Work on `C[C@@H]1C(=O)O[C@@]23COC(=O)[C@]2(C)CCC(=O)[C@@]3(C)[C@@H]1CC(=O)c1ccoc1` yielded an Activity of 16.3 ng/h. With `C[C@@H]1C(=O)O[C@@]23CC[C@@]4(C)C(=O)OC[C@]45O[C@@](c4ccoc4)(C[C@H]1[C@]25C)O3` the Activity was 25.5 ng/h. Compound `COC(=O)[C@]1(C)CCCC2=C1[C@@H](OC(C)=O)[C@H]1[C@H](c3ccoc3)OC(=O)[C@@H](C)[C@@]21O` has an Activity of 12.5 ng/h. For `COC(=O)[C@]1(C)CCC[C@@]2(C)[C@@]3(O)[C@@H]([C@@H](OC(C)=O)[C@@]21O)[C@H](c1ccoc1)OC(=O)[C@@H]3C`, the Activity was 24.7 ng/h. Work on `CC(=O)O[C@@H]1[C@@H]2C(=C(C)C(=O)O[C@H]2c2ccoc2)[C@]2(C)[C@@H]3CC[C@@](C)(C(=O)O3)[C@@H]12` yielded an Activity of 8 ng/h. `C[C@H]1C(=O)O[C@@H](c2ccoc2)C[C@H]1[C@@]1(C)CCC[C@@]2(C)C(=O)OC[C@H]12` was tested, and the Activity was 10.6 ng/h. Compound `CC(=O)O[C@@H]1[C@H]2[C@H](c3ccoc3)OC(=O)[C@H](C)[C@@]2(O)[C@@]23CCC[C@@](C)(C(=O)OC2)[C@@]13O` has an Activity of 8 ng/h. `C[C@@H]1C(=O)O[C@@]23CC[C@@]4(C)C(=O)OC[C@]45O[C@@](C4=CC(=O)OC4O)(C[C@H]1[C@]25C)O3` (stereo not given in full) was tested, and the Activity was 20.8 ng/h. `C[C@@H]1C(=O)O[C@@]23CC[C@@]4(C)C(=O)OC[C@]45O[C@@](C4=C[C@H](O)OC4=O)(C[C@H]1[C@]25C)O3` showed an Activity of 25.5 ng/h. For `COC(=O)[C@]1(C)CC[C@@H](O)[C@@H]2C3=C(C)C(=O)O[C@@H](c4ccoc4)[C@@H]3[C@@H](OC(C)=O)[C@H]21`, the Activity was 14.6 ng/h. `C[C@@H]1C(=O)O[C@@]23CC[C@@]4(C)C(=O)OC[C@]45O[C@@](C4=C[C@@H](O)OC4=O)(C[C@H]1[C@]25C)O3` showed an Activity of 18.3 ng/h. `COC(=O)[C@]1(C)CCC[C@]2(C)[C@H]1[C@H](OC(C)=O)[C@H]1[C@H](c3ccoc3)OC(=O)[C@H](C)[C@]12O` showed an Activity of 7.5 ng/h. `C[C@H]1C(=O)O[C@@]23COC(=O)[C@]2(C)CC[C@@]2(O)O[C@H](c4ccoc4)C[C@H]1[C@@]32C` was tested, and the Activity was 30.7 ng/h. `C[C@H]1C(=O)O[C@@]23COC(=O)[C@]2(C)CCC(=O)[C@@]3(C)[C@@H]1CC(=O)c1ccoc1` was tested, and the Activity was 18.4 ng/h. For `COC(=O)[C@]1(C)CCC[C@@]2(C)[C@@]3(O)[C@@H]([C@@H](O)[C@@]21O)[C@H](c1ccoc1)OC(=O)[C@@H]3C`, the Activity was 8.2 ng/h. In the case of `CCCCNC(=O)NS(=O)(=O)c1ccc(C)cc1` [TOLBUTAMIDE], the Activity is reported as 19.9 ng/h.
